Here are results for 1 molecule from ChEMBL document CHEMBL5321282, “Design, Synthesis, and Biological Evaluation of Esculetin-Furoxan-DEAC Ternary Hybrids for Anti-Triple Negative Breast Cancer” (J Med Chem, 2023).

Calls of active or inactive are those of the source. The rule behind the calls is not given here.

For data set [1], the system named is MDA-MB-231. In words: Antiproliferative activity against human MDA-MB-231 cells assessed as inhibition of cell growth measured after 48 hrs by MTT assay. The settings on record: MDA-MB-231, 48 h. It counts as functional, cell-based.
Data set [2] can be described thus: Toxicity in BALB/C mouse xenografted with human MDA-MB-231 cells assessed as heart damage at 2.5 to 5 mg/kg, ip administered every 2 days measured after 3 weeks by H and E staining based analysis. The class given is organism-based. The settings on record: in vivo, 504 h, dose 2.5-5 mg/kg. In general terms: In xenograft studies the graft and the host belong to different species.

Data set [3] has as its system MDA-MB-231. In words: Induction of cell cycle arrest in human MDA-MB-231 cells assessed as accumulation of cells at G2/M phase at 5 to 20 nM measured after 24 hrs by PI staining by flow cytometric analysis (Rvb =11.70%). The settings on record: dose 5-20 nM. The class given is functional.
The subject of data set [4] is MDA-MB-231. Briefly: Induction of apoptosis in human MDA-MB-231 cells assessed as early apoptotic cells at 10 nM incubated for 24 hrs by Annexin V-FITC/PI staining based flow cytometric analysis (reference value: 4.90%). The class given is functional. (In general: A flow cytometer gives signals particle by particle.)
The subject of data set [5] is MDA-MB-231. In words: Induction of mitochondrial membrane potential depolarization in human MDA-MB-231 cells assessed as increase in green fluorescence at 5 to 20 nM incubated for 24 hrs by JC-1 staining based inverted fluorescent microscopic analysis. The conditions noted are these: dose 5-20 nM. It counts as functional, cell-based.
Data set [6] deals with MDA-MB-231. Briefly: Induction of apoptosis in human MDA-MB-231 cells assessed as necrotic cells at 20 nM incubated for 24 hrs by Annexin V-FITC/PI staining based flow cytometric analysis (reference value: 0.11%). The class given is functional.
Data set [7] deals with MDA-MB-231. Briefly: Antiproliferative activity against human MDA-MB-231 cells assessed as induction of ROS production at 20 nM in presence of NAC measured after 24 hrs by MTT assay. The class given is functional, cell-based. For orientation: Formazan colour is commonly taken as a measure of viable cells.
Data set [8] relates to MDA-MB-231. Briefly: Induction of cell cycle arrest in human MDA-MB-231 cells assessed as accumulation of cells at S phase at 20 nM measured after 24 hrs by PI staining based flow cytometric analysis (Rvb =24.1%). The class given is functional.
The test system of data set [9] is MDA-MB-231. In words: Induction of apoptosis in human MDA-MB-231 cells assessed as viable cells at 10 nM incubated for 24 hrs by Annexin V-FITC/PI staining based flow cytometric analysis (reference value: 90.1%). The conditions noted are these: read-out: Activity. The class given is functional.
Data set [10] concerns MDA-MB-231. Briefly: Induction of cell cycle arrest in human MDA-MB-231 cells assessed as accumulation of cells at G1 phase at 20 nM measured after 24 hrs by PI staining based flow cytometric analysis (Rvb =58%). It counts as functional.
The nature of data set [11]: Toxicity in BALB/C mouse xenografted with human MDA-MB-231 cells assessed as spleen damage at 2.5 to 5 mg/kg, ip administered every 2 days measured after 3 weeks by H and E staining based analysis. The class given is organism-based. The settings on record: in vivo, 504 h, dose 2.5-5 mg/kg.
For data set [12], the system named is MDA-MB-231. In words: Induction of apoptosis in human MDA-MB-231 cells assessed as increase in Bax level incubated for 24 hrs by Western blotting analysis. The class given is functional, cell-based. The settings on record: dose 5-20 nM.
The nature of data set [13]: Toxicity in BALB/C mouse xenografted with human MDA-MB-231 cells assessed as kidney damage at 2.5 to 5 mg/kg, ip administered every 2 days measured after 3 weeks by H and E staining based analysis. The class given is organism-based. The settings on record: in vivo, 504 h, dose 2.5-5 mg/kg.
Data set [14] has as its system MDA-MB-231. Briefly: Induction of apoptosis in human MDA-MB-231 cells assessed as late apoptotic cells at 20 nM incubated for 24 hrs by Annexin V-FITC/PI staining based flow cytometric analysis (reference value: 4.90%). It counts as functional.
For data set [15], the system named is MDA-MB-231. In words: Induction of apoptosis in human MDA-MB-231 cells assessed as effect on ANT level at 5 to 20 nM incubated for 8 hrs by Western blotting analysis. It counts as functional, cell-based. The conditions noted are these: dose 5-20 nM.
Data set [16] has as its system MDA-MB-231. In words: Induction of apoptosis in human MDA-MB-231 cells assessed as late apoptotic cells at 10 nM incubated for 24 hrs by Annexin V-FITC/PI staining based flow cytometric analysis (reference value: 4.90%). The class given is functional.
In data set [17] the test system is MDA-MB-231. Briefly: Induction of cell cycle arrest in human MDA-MB-231 cells assessed as accumulation of cells at S phase at 10 nM measured after 24 hrs by PI staining based flow cytometric analysis (Rvb =24.1%). It counts as functional.
Data set [18] relates to HCT-116. Briefly: Antiproliferative activity against human HCT-116 cells assessed as inhibition of cell growth measured after 48 hrs by MTT assay. It counts as functional, cell-based. The conditions noted are these: HCT-116, 48 h.
For data set [19], the system named is A549. In words: Antiproliferative activity against human A549 cells assessed as inhibition of cell growth measured after 48 hrs by MTT assay. The class given is functional, cell-based. The conditions noted are these: A549, 48 h.
Data set [20] in a line: Cytotoxicity against human L02 cells assessed as inhibition in cell growth measured after 48 hrs by MTT assay. It counts as toxicity, cell-based.
Data set [21] deals with MDA-MB-231. In words: Induction of apoptosis in human MDA-MB-231 cells assessed as decrease in mitochondrial CytC level at 5 to 20 nM incubated for 8 hrs by Western blotting analysis. The class given is functional, cell-based. The settings on record: dose 5-20 nM.
In data set [22] the test system is MDA-MB-231. Briefly: Antitumor activity against human MDA-MB-231 cells xenografted in BALB/C mouse assessed as inhibition of tumor volume at 5 mg/kg, ip administered every 2 days measured after 3 weeks. It counts as functional. Also on record: scale not given: the % may be the effect or the level left.
Data set [23] relates to MDA-MB-231. In words: Induction of apoptosis in human MDA-MB-231 cells assessed as decrease in mitochondrial SMAC level at 5 to 20 nM incubated for 8 hrs by Western blotting analysis. The class given is functional, cell-based. The settings on record: dose 5-20 nM.
For data set [24], the system named is MDA-MB-231. Briefly: Antitumor activity against human MDA-MB-231 cells xenografted in BALB/C mouse assessed as increase in ROS level in tumor at 2.5 to 5 mg/kg, ip administered every 2 days measured after 3 weeks by DHE staining based analysis. It counts as functional, organism-based. The settings on record: dose 2.5-5 mg/kg.

Turning to `CCN(CC)c1ccc2cc(C(=O)OCCCCCOc3cc4ccc(=O)oc4cc3OCCCCCCOc3no[n+]([O-])c3S(=O)(=O)c3ccccc3)c(=O)oc2c1`, the IC50 (usually the point on the concentration scale where inhibition reaches its midpoint) in [1] is 8 nM; in data set [18], 4140 nM; in [19], 840 nM. Besides, the Activity result is recorded as “Non-Toxic” in [2]; 22.97% in data set [3]; 21.9% in [4]; 3.93% in [6]; 21% in data set [8]; 57.9% in data set [10]. The Activity result in data set [11] was “Non-Toxic”; in [12], “Dose-Dependent Effect”; in [13] it was “Non-Toxic”; in data set [14], 39%; in data set [16] it was 30%; in data set [17] it was 25.9%. The Activity in data set [22] turned out to be 63.5%. For the same molecule, the result in [5], in [21], in data set [23] and in data set [24] was Active. In addition, the outcome in data set [7] and in [15] was inactive. In addition, the viability at 0.01 µM in data set [9] was 47.3%. The IC50 at 48 h in data set [20] is 11900 nM.
